Publication PMC7048748, “Anxiolytic Drug FGIN-1-27 Ameliorates Autoimmunity by Metabolic Reprogramming of Pathogenic Th17 Cells” (Scientific Reports, 2020)

Test system: Th17 cells
Assay: Lipidomics of Th17 cells
Format: cell-based, mouse
Design: key to nCE(16:0) / nCE(18:2) / nDCER(22:0) / nDCER[FA14:0] / nFFA(12:0) / nFFA(14:1) / nFFA(18:4) / nCE(22:0) / nCE(22:6) / nCE(24:1) / nCE[FA14:1] / nCE(12:0) / nCE[FA16:0] / nCE[FA17:0] / nCE[FA18:2] / nCE[FA22:6]: mole percent of each fatty acid within its lipid class
Experimental: Specific cholesterol precursors like desmosterol and oxysterols, such as 7β, 27-dihydroxycholesterol (7β, 27-OHC), have been identified as ligands for RORγt[21],[22] and shown to modulate Th17 differentiation. […] Next, we extended our studies to lipid metabolites and profiled the lipidome of Th17 cells treated with DMSO or FGIN-1-27.
(a) Quantitation of cholesterol esters, triacylglycerols (TAGs), phosphatidylethanolamine (PE) and phosphatidylcholine (PC) in Th17 cells 72 hours after treatment with FGIN-1-27. The error bars represent SD. (b) Heat map showing fatty acid composition (mole percent) for different lipid classes after treatment with FGIN-1-27. (c) Pie charts showing proportions of different fatty acid classes namely PUFAs, MUFAs, ODD and SFAs within the cholesterol esters. (d) Transcript analysis for CD5L 72 hours post treatment with FGIN-1-27. The error bars represent SD.
Th17 cells were differentiated from naïve purified CD4 T cells and treated with either FGIN-1-27 (10 µM) or DMSO during polarization. 10 million cells/treatment were harvested and snap frozen. […] The extracts were concentrated under nitrogen and reconstituted in 0.25 mL of dichloromethane:methanol (50:50) containing 10 mM ammonium acetate. The extracts were placed in vials for infusion-MS analyses, performed on a SelexION equipped Sciex 5500 QTRAP using both positive and negative mode electrospray. Each sample was subjected to 2 analyses, with IMS-MS conditions optimized for lipid classes monitored in each analysis. The 5500 QTRAP was operated in MRM mode to monitor the transitions for over 1,100 lipids from up to 14 lipid classes. Individual lipid species were quantified based on the ratio of signal intensity for target compounds to the signal intensity for an assigned internal standard of known concentration. Lipid class concentrations were calculated from the sum of all molecular species within a class, and fatty acid compositions were determined by calculating the proportion of individual fatty acids within each class.

## CCCCCCN(CCCCCC)C(=O)Cc1c(-c2ccc(F)cc2)[nH]c2ccccc12 [FGIN-1-27, N, N-di-n-hexyl 2-(4-fluorophenyl) indole-3-acetamide]
72 hours, 10 µM
  down-regulation of cholesterol esters: 5 folds
  reduction in triacylglycerides (TAGs): 2 fold
Fig. 6c pie chart
  MUFA proportion within the cholesterol esters: 39%
  ODD proportion within the cholesterol esters: 10%
  PUFA proportion within the cholesterol esters: 14%
  SFA proportion within the cholesterol esters: 37%
Th17 cells, 10 µM
  nCE: 0.3432
  nCE(12:0): 0.3209
  nCE(14:0): 7.863
  nCE(14:1): 0.8946
  nCE(15:0): 6.739
  nCE(16:0): 20.165
  nCE(16:1): 5.753
  nCE(17:0): 3.887
  nCE(18:0): 9.753
  nCE(18:1): 25.3604
  nCE(18:2): 6.676
  nCE(18:3): 0.6485
  nCE(18:4): 0.0392
  nCE(20:0): 0.838
  nCE(20:1): 1.913
  nCE(20:2): 0.3245
  nCE(20:3): 0.8988
  nCE(20:4): 3.812
  nCE(20:5): 0.1401
  nCE(22:0): 0.2674
  nCE(22:1): 0.4486
  nCE(22:2): 0.3494
  nCE(22:4): 0.2548
  nCE(22:5): 0.2179
  nCE(22:6): 0.5711
  nCE(24:0): 0.624
  nCE(24:1): 1.24
  nCER: 0.6286
  nCER(14:0): 0.8623
  nCER(16:0): 27.3543
  nCER(18:0): 2.572
  nCER(18:1): 0.1145
  nCER(20:0): 2.068
  nCER(20:1): 0.05342
  nCER(22:0): 7.074
  nCER(22:1): 0.4579
  nCER(24:0): 30.2198
  nCER(24:1): 28.2356
  nCER(26:0): 0.4655
  nCER(26:1): 0.5227
  nCER[FA14:0]: 0.8623
  nCER[FA16:0]: 27.3543
  nCER[FA18:0]: 2.572
  nCER[FA18:1]: 0.1145
  nCER[FA20:0]: 2.068
  nCER[FA20:1]: 0.05342
  nCER[FA22:0]: 7.074
  nCER[FA22:1]: 0.4579
  nCER[FA24:0]: 30.2198
  nCER[FA24:1]: 28.2356
  nCER[FA26:0]: 0.4655
  nCER[FA26:1]: 0.5227
  nCE[FA12:0]: 0.3209
  nCE[FA14:0]: 7.863
  nCE[FA14:1]: 0.8946
  nCE[FA15:0]: 6.739
  nCE[FA16:0]: 20.165
  nCE[FA16:1]: 5.753
  nCE[FA17:0]: 3.887
  nCE[FA18:0]: 9.753
  nCE[FA18:1]: 25.3604
  nCE[FA18:2]: 6.676
  nCE[FA18:3]: 0.6485
  nCE[FA18:4]: 0.0392
  nCE[FA20:0]: 0.838
  nCE[FA20:1]: 1.913
  nCE[FA20:2]: 0.3245
  nCE[FA20:3]: 0.8988
  nCE[FA20:4]: 3.812
  nCE[FA20:5]: 0.1401
  nCE[FA22:0]: 0.2674
  nCE[FA22:1]: 0.4486
  nCE[FA22:2]: 0.3494
  nCE[FA22:4]: 0.2548
  nCE[FA22:5]: 0.2179
  nCE[FA22:6]: 0.5711
  nCE[FA24:0]: 0.624
  nCE[FA24:1]: 1.24
  nDAG: 2.149
  nDAG(12:0/16:0): 0.1725
  nDAG(12:0/18:0): 0.3066
  nDAG(12:0/18:1): 0.3287
  nDAG(12:0/18:2): 0.07889
  nDAG(14:0/14:0): 0.8017
  nDAG(14:0/16:0): 9.103
  nDAG(14:0/16:1): 1.239
  nDAG(14:0/18:1): 2.636
  nDAG(14:0/18:2): 0.1578
  nDAG(14:0/18:3): 0.01025
  nDAG(14:0/20:0): 0.2618
  nDAG(14:0/20:4): 0.02818
  nDAG(14:0/22:6): 0.05137
  nDAG(14:1/16:0): 0.2729
  nDAG(14:1/18:1): 0.217
  nDAG(15:0/18:1): 0.2893
